Results: PubChem BioAssay (NCI)
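Abbreviation: GI50, concentration required for 50% inhibition of growth. TGI: total growth inhibition.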

Experiments:
Assay in all cases: DTP human tumour cell line panel, 384-well format
U251 glioblastoma = system: U251 glioblastoma
RPMI-8226 leukemia = system: RPMI-8226 leukemia
OVCAR-5 ovarian = system: OVCAR-5 ovarian
IGROV1 ovarian = system: IGROV1 ovarian
OVCAR-4 ovarian = system: OVCAR-4 ovarian
M14 melanoma = system: M14 melanoma
SNB-75 CNS = system: SNB-75 CNS
NCI-H23 lung = system: NCI-H23 lung
MDA-MB-231 breast = system: MDA-MB-231 breast
ACHN renal = system: ACHN renal
EKVX NSCLC = system: EKVX NSCLC
CAKI-1 renal = system: CAKI-1 renal
HCC-2998 colon = system: HCC-2998 colon
TK-10 renal = system: TK-10 renal
SK-MEL-5 melanoma = system: SK-MEL-5 melanoma
HS 578T breast = system: HS 578T breast
OVCAR-3 ovarian = system: OVCAR-3 ovarian
LOX IMVI melanoma = system: LOX IMVI melanoma
NCI-H522 lung = system: NCI-H522 lung
OVCAR-8 ovarian = system: OVCAR-8 ovarian
BT-549 breast = system: BT-549 breast
RXF 393 renal = system: RXF 393 renal
HOP-92 NSCLC = system: HOP-92 NSCLC
HCT-15 colon = system: HCT-15 colon
SF-539 CNS = system: SF-539 CNS
NCI-H322M lung = system: NCI-H322M lung
MDA-MB-435 melanoma = system: MDA-MB-435 melanoma
SK-OV-3 ovarian = system: SK-OV-3 ovarian
MALME-3M melanoma = system: MALME-3M melanoma
T-47D breast = system: T-47D breast
SK-MEL-28 melanoma = system: SK-MEL-28 melanoma
SF-295 CNS = system: SF-295 CNS
A498 renal = system: A498 renal
SNB-19 CNS = system: SNB-19 CNS
SF-268 CNS = system: SF-268 CNS
MCF7 breast = system: MCF7 breast
NCI-H226 lung = system: NCI-H226 lung
HOP-62 NSCLC = system: HOP-62 NSCLC
MOLT-4 leukemia = system: MOLT-4 leukemia
KM12 colon = system: KM12 colon
MDA-MB-468 breast = system: MDA-MB-468 breast
SR leukemia = system: SR leukemia
UACC-62 melanoma = system: UACC-62 melanoma
HT29 colon = system: HT29 colon
PC-3 prostate = system: PC-3 prostate
UACC-257 melanoma = system: UACC-257 melanoma
NCI-H460 NSCLC = system: NCI-H460 NSCLC
SN12C renal = system: SN12C renal
HCT-116 colon = system: HCT-116 colon
NCI/ADR-RES ovarian = system: NCI/ADR-RES ovarian
A549 NSCLC = system: A549 NSCLC
DU-145 prostate = system: DU-145 prostate
HL-60(TB) leukemia = system: HL-60(TB) leukemia
COLO 205 colon = system: COLO 205 colon

For `CCc1c[nH]c2ncnc(N3CC[C@](N)(CNC(=O)c4ccc(F)cc4F)C3)c12`, the GI50 (U251 glioblastoma) was 2.79 µM, the TGI (U251 glioblastoma) was greater than 100 µM and the GI50 (RPMI-8226 leukemia) was 3.38 µM. It also gave a TGI (RPMI-8226 leukemia) of 30.2 µM, a GI50 (OVCAR-5 ovarian) of 4.4 µM and a TGI (OVCAR-5 ovarian) of 55.8 µM. The GI50 (IGROV1 ovarian) was 0.149 µM, the TGI (IGROV1 ovarian) was 1.71 µM and the GI50 (OVCAR-4 ovarian) was 32 µM. It also gave a TGI (OVCAR-4 ovarian) greater than 100 µM, a GI50 (M14 melanoma) of 14.4 µM and a TGI (M14 melanoma) greater than 100 µM. The GI50 (SNB-75 CNS) was 0.626 µM, the TGI (SNB-75 CNS) was greater than 100 µM and the GI50 (NCI-H23 lung) was 13.8 µM. The TGI (NCI-H23 lung) was greater than 100 µM, the GI50 (MDA-MB-231 breast) was 68.8 µM and the TGI (MDA-MB-231 breast) was greater than 100 µM. It also gave a GI50 (ACHN renal) of 4.85 µM, a TGI (ACHN renal) greater than 100 µM and a GI50 (EKVX NSCLC) of 7.28 µM. The TGI (EKVX NSCLC) was 46.2 µM, the GI50 (CAKI-1 renal) was 5.18 µM and the TGI (CAKI-1 renal) was greater than 100 µM. It also gave a GI50 (HCC-2998 colon) of 3.13 µM, a TGI (HCC-2998 colon) of 88 µM and a GI50 (TK-10 renal) of 1.26 µM. The TGI (TK-10 renal) was 45.3 µM, the GI50 (SK-MEL-5 melanoma) was 12.9 µM and the TGI (SK-MEL-5 melanoma) was 28.9 µM. It also gave a GI50 (HS 578T breast) of 2.53 µM, a TGI (HS 578T breast) of 95.3 µM and a GI50 (OVCAR-3 ovarian) of 8.07 µM. For the same molecule, the TGI (OVCAR-3 ovarian) was greater than 100 µM, the GI50 (LOX IMVI melanoma) was 18.8 µM and the TGI (LOX IMVI melanoma) was greater than 100 µM. It also gave a GI50 (NCI-H522 lung) of 11 µM, a TGI (NCI-H522 lung) of 35.8 µM and a GI50 (OVCAR-8 ovarian) of 15 µM. It also gave a TGI (OVCAR-8 ovarian) greater than 100 µM, a GI50 (BT-549 breast) of 1.27 µM and a TGI (BT-549 breast) of 18.4 µM. The GI50 (RXF 393 renal) was 3.34 µM, the TGI (RXF 393 renal) was greater than 100 µM and the GI50 (HOP-92 NSCLC) was 29.6 µM. For the same molecule, the TGI (HOP-92 NSCLC) was greater than 100 µM, the GI50 (HCT-15 colon) was 5.47 µM and the TGI (HCT-15 colon) was greater than 100 µM. For the same molecule, the GI50 (SF-539 CNS) was 0.442 µM, the TGI (SF-539 CNS) was greater than 100 µM and the GI50 (NCI-H322M lung) was 7.12 µM. The TGI (NCI-H322M lung) was greater than 100 µM, the GI50 (MDA-MB-435 melanoma) was 15.4 µM and the TGI (MDA-MB-435 melanoma) was 73.4 µM. The GI50 (SK-OV-3 ovarian) was 0.892 µM, the TGI (SK-OV-3 ovarian) was greater than 100 µM and the GI50 (MALME-3M melanoma) was 8.62 µM. For the same molecule, the TGI (MALME-3M melanoma) was 28.6 µM, the GI50 (T-47D breast) was 0.343 µM and the TGI (T-47D breast) was greater than 100 µM. The GI50 (SK-MEL-28 melanoma) was 9.04 µM, the TGI (SK-MEL-28 melanoma) was greater than 100 µM and the GI50 (SF-295 CNS) was 1.95 µM. It also gave a TGI (SF-295 CNS) greater than 100 µM, a GI50 (A498 renal) of 0.136 µM and a TGI (A498 renal) of 2.09 µM. The GI50 (SNB-19 CNS) was 3.49 µM, the TGI (SNB-19 CNS) was greater than 100 µM and the GI50 (SF-268 CNS) was greater than 100 µM. For the same molecule, the TGI (SF-268 CNS) was greater than 100 µM, the GI50 (MCF7 breast) was 0.375 µM and the TGI (MCF7 breast) was greater than 100 µM. For the same molecule, the GI50 (NCI-H226 lung) was 9.86 µM, the TGI (NCI-H226 lung) was greater than 100 µM and the GI50 (HOP-62 NSCLC) was 6.34 µM. The TGI (HOP-62 NSCLC) was 82.3 µM, the GI50 (MOLT-4 leukemia) was 0.237 µM and the TGI (MOLT-4 leukemia) was 1.76 µM. The GI50 (KM12 colon) was 0.959 µM, the TGI (KM12 colon) was greater than 100 µM and the GI50 (MDA-MB-468 breast) was 0.454 µM. It also gave a TGI (MDA-MB-468 breast) of 18.9 µM, a GI50 (SR leukemia) of 0.0603 µM and a TGI (SR leukemia) of 1.98 µM. It also gave a GI50 (UACC-62 melanoma) of 4.26 µM, a TGI (UACC-62 melanoma) of 25.1 µM and a GI50 (HT29 colon) of 3.98 µM. The TGI (HT29 colon) was greater than 100 µM, the GI50 (PC-3 prostate) was 0.446 µM and the TGI (PC-3 prostate) was 21.8 µM. For the same molecule, the GI50 (UACC-257 melanoma) was 7.7 µM, the TGI (UACC-257 melanoma) was 31.1 µM and the GI50 (NCI-H460 NSCLC) was 0.536 µM. For the same molecule, the TGI (NCI-H460 NSCLC) was 20.2 µM, the GI50 (SN12C renal) was 7.5 µM and the TGI (SN12C renal) was greater than 100 µM. The GI50 (HCT-116 colon) was 6.21 µM, the TGI (HCT-116 colon) was greater than 100 µM and the GI50 (NCI/ADR-RES ovarian) was 12.3 µM. The TGI (NCI/ADR-RES ovarian) was greater than 100 µM, the GI50 (A549 NSCLC) was 10.8 µM and the TGI (A549 NSCLC) was greater than 100 µM. The GI50 (DU-145 prostate) was 6.69 µM, the TGI (DU-145 prostate) was greater than 100 µM and the GI50 (HL-60(TB) leukemia) was 10.4 µM. For the same molecule, the TGI (HL-60(TB) leukemia) was 23.5 µM, the GI50 (COLO 205 colon) was 4.95 µM and the TGI (COLO 205 colon) was 28.6 µM.
